Assay results published in ChEMBL document CHEMBL1201862, “PubChem BioAssay data set” (2004).
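Cultured in 96-well plates, cells were exposed to test compound for 48 hours across five concentrations. GI50 = concentration required for 50% inhibition of growth.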 Calls of active or inactive are those of the source. No stated cut-off is given here; in the data, active = GI50 up to about 1.1 µM and inactive = higher.

Columns and labels:
Experiment in all cases: NCI anticancer screen, dose series, 48 h
A498 = system: A498
ACHN = system: ACHN
BT-549 = system: BT-549
COLO 205 = system: COLO 205
HCC 2998 = system: HCC 2998
HCT-15 = system: HCT-15
K562 = system: K562
M14 = system: M14
NCI-H23 = system: NCI-H23
OVCAR-5 = system: OVCAR-5
PC-3 = system: PC-3
RPMI-8226 = system: RPMI-8226
RXF 393 = system: RXF 393
SF-539 = system: SF-539
SK-MEL-5 = system: SK-MEL-5
SNB-75 = system: SNB-75
TK-10 = system: TK-10
U-251 = system: U-251
UACC-257 = system: UACC-257
UACC-62 = system: UACC-62

Row | Compound | GI50 (A498) | GI50 (ACHN) | GI50 (BT-549) | GI50 (COLO 205) | GI50 (HCC 2998) | GI50 (HCT-15) | GI50 (K562) | GI50 (M14) | GI50 (NCI-H23) | GI50 (OVCAR-5) | GI50 (PC-3) | GI50 (RPMI-8226) | GI50 (RXF 393) | GI50 (SF-539) | GI50 (SK-MEL-5) | GI50 (SNB-75) | GI50 (TK-10) | GI50 (U-251) | GI50 (UACC-257) | GI50 (UACC-62)
1 | Fc1cccc(F)c1C(Nc1nncs1)Nc1nncs1 | > 100 µM (inactive) | > 100 µM (inactive) | > 100 µM (inactive) | > 100 µM (inactive) | > 100 µM (inactive) | 91.2 µM | > 100 µM (inactive) | 59.6 µM (inactive) | > 100 µM (inactive) | > 100 µM (inactive) | > 100 µM (inactive) | > 100 µM (inactive) | > 100 µM (inactive) | 49 µM (inactive) | > 100 µM (inactive) | > 100 µM (inactive) | > 100 µM (inactive) | > 100 µM (inactive) | > 100 µM (inactive) | > 100 µM (inactive)
2 | Cc1cn([C@@H]2C[C@H]2CO)c(=O)[nH]c1=O | > 100 µM (inactive) | > 100 µM (inactive) | > 100 µM (inactive) | > 100 µM (inactive) | > 100 µM (inactive) | > 100 µM | > 100 µM (inactive) | > 100 µM (inactive) | > 100 µM (inactive) | > 100 µM (inactive) | > 100 µM (inactive) | > 100 µM (inactive) | > 100 µM (inactive) | 57 µM (inactive) | > 100 µM (inactive) | > 100 µM (inactive) | > 100 µM (inactive) | > 100 µM (inactive) | > 100 µM (inactive) | > 100 µM (inactive)
3 | CC(=O)NC1C(OCc2ccccc2)OC(CO)C(O)C1OC(C)C(=O)NC(C(=O)NC(CCC(=O)Nc1ccc2c(c1)CN1C(=O)c3ccccc3C1=N2)C(N)=O)C(C)C (stereo not given) | > 100 µM (inactive) | > 100 µM (inactive) | > 100 µM (inactive) | > 100 µM (inactive) | > 100 µM (inactive) | > 100 µM | > 100 µM (inactive) | > 100 µM (inactive) | > 100 µM (inactive) | > 100 µM (inactive) | > 100 µM (inactive) | > 100 µM (inactive) | > 100 µM (inactive) | > 100 µM (inactive) | > 100 µM (inactive) | > 100 µM (inactive) | > 100 µM (inactive) | > 100 µM (inactive) | > 100 µM (inactive) | > 100 µM (inactive)
4 | Oc1c(/N=N/c2ccccc2)c2ccccc2c2ccc3ccccc3c12 | > 100 µM (inactive) | 55.3 µM (inactive) | 73.8 µM (inactive) | > 100 µM (inactive) | > 100 µM (inactive) | > 100 µM | 35.3 µM (inactive) | 57.5 µM (inactive) | > 100 µM (inactive) | > 100 µM (inactive) | 73.8 µM (inactive) | 45.6 µM (inactive) | 56.1 µM (inactive) | 34.5 µM (inactive) | > 100 µM (inactive) | 64.1 µM (inactive) | > 100 µM (inactive) | 39.6 µM (inactive) | > 100 µM (inactive) | 66.1 µM (inactive)
5 | C/C1=C\[C@H](C)C[C@H](C)OC(=O)C[C@H](c2ccc(O)cc2)NC(=O)[C@@H](Cc2c(Br)[nH]c3ccccc23)N(C)C(=O)[C@H](C)NC(=O)[C@@H](C)C1 [JASPAMIDE] | 0.0224 µM (active) | 0.199 µM (active) | 0.0292 µM (active) | 0.207 µM (active) | 0.0499 µM (active) | 0.834 µM | 0.667 µM (active) | 0.211 µM (active) | 0.467 µM (active) | 0.457 µM (active) | 0.0667 µM (active) | 0.218 µM (active) | 0.0369 µM (active) | 0.0249 µM (active) | 0.158 µM (active) | 0.084 µM (active) | 0.294 µM (active) | 0.243 µM (active) | 0.11 µM (active) | 0.219 µM (active)
